In article PMC4791210 (International immunopharmacology, 2015):

Key:
FPR1 [1] = biological target: T1, FPR1 (Homo sapiens, UniProt P21462); conditions: cited from earlier work
T1 sequence (P21462 1-350): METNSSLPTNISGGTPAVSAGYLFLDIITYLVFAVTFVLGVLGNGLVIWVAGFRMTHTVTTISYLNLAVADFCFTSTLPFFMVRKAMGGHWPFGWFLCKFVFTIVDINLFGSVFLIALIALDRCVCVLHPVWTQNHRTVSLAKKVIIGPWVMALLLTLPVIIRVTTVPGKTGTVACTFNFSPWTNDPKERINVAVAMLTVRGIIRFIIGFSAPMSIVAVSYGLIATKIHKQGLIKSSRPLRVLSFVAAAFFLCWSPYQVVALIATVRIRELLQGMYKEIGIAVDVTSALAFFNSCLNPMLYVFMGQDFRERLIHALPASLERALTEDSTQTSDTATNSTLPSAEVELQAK

human neutrophils = assay: Direct activation of Ca2+ flux in human neutrophils; assay type: cell-based; conditions: Neutrophil, read-out: Human Neutrophils Activation (EC50, μM)
FPR1 [2] = biological target: T1, FPR1; assay: Direct activation of Ca2+ flux in FPR1 transfected HL-60 cells; assay type: cell-based
human monocytes = conditions: read-out: IC50, inhibition of fMLF-induced Ca2+ flux in human monocytes; cited from earlier work
FPR1 [3] = conditions: high concentrations; cited from earlier work

| Compound | Binding of fluorescent FPR1 ligand in human neutrophils (FPR1 [1]) | EC50 (human neutrophils) | EC50 (FPR1 [2]) | IC50 (human monocytes) | Concentrations that antagonize FPR1 and inhibit 3H-fMLF binding (FPR1 [3]) |
| --- | --- | --- | --- | --- | --- |
| CC(=O)OC1COC(OC2C(O)C(C)OC(OC3C(OC4CCC5(C)C(CCC6(C)C5CC=C5C7CC(C)(C)CCC7(C(=O)O)CCC56C)C4(C)CO)OCC(O)C3O)C2O)C(O)C1OC(C)=O [SMG-1, hederagenin 3-O-(3,4-O-di-acetyl-α-L-arabinopyranoside)-(1→3)-α-l-rhamnopyranosyl-(1→2)-α-l-arabinopyranoside] | blocked binding | – | – | – | – |
| C[C@H](CCC(=O)O)[C@H]1CC[C@H]2[C@@H]3[C@H](O)C[C@@H]4C[C@H](O)CC[C@]4(C)[C@H]3CC[C@]12C [Chenodeoxycholic acid (CDCA), Chenodeoxycholic acid] | – | 49.5 ± 5.1 µM | 40.3 ± 4.5 µM | 40 µM | ≥ 100 µM |
